This data set in a line: Electrical conductivity of solutions of the organic salts in non-aqueous solvents. The format is physicochemical. The procedure:
A variety of metal carboxylates were prepared in heptane by reacting versatic acid and 2-ethyl hexanoic acid directly with the metal of choice or with a metal base such as the hydride or hydroxide. Lithium, sodium, potassium, rubidium, calcium and gadolinium systems were synthesised.
A 1 molar solution of potassium bis(2-ethylhexyl) phosphate in Brij 30 was then prepared by dissolving 18.02 grams of the salt in 47.5 grams (50 ml) of the solubilising agent.
A 1 molar solution of AOT (Aldrich Chemicals) in Brij 30 was prepared by dissolving 22.23 grams of AOT in 47.5 grams (50 ml) of Brij 30.
The final AOT/neopentyl glycol/Brij 30 solution of FIG. 10 (i.e. 1 molar AOT and 2 molar neopentyl glycol in Brij 30) was then diluted with successive amounts of mineral spirits and the conductivity measured at each addition.

[1] abbreviates: 1 molar salt and 2 molar neopentyl glycol in Brij 30, diluted: 20% solution, 80% mineral spirits by volume.

With `CCCCC(CC)COC(=O)CC(C(=O)OCC(CC)CCCC)S(=O)(=O)O.[Na]` (centres unmarked) [AOT, sodium salt of bis(2-ethylhexyl) sulfosuccinate], the conductivity is given as 33.5 ìS/cm (1 molar in Brij 30 with 2.0 molar neopentyl glycol, 25° C.); 1.5 ìS/cm under setting [1]; 15.7 ìS/cm (1 molar solution in Brij 30).
Regarding `CCCCC(CC)COP(=O)([O-])OCC(CC)CCCC.[K+]` (centres unmarked) [potassium bis(2-ethylhexyl) phosphate], the conductivity is 3.2 ìS/cm under setting [1] and 45.5 ìS/cm (1 molar solution in Brij 30).

These data come from US7399731B2, “Electrically conductive non-aqueous wellbore fluid” (M-I L.L.C., priority 2001, dated 2008).
